# Legend:
# [1] = Saturation concentration of elafibranor in the crystallization solvent; assay type: physicochemical; conditions: room temperature
# [2] = system: patients and healthy volunteers; conditions: over 800 patients and healthy volunteers; cited from earlier work
# animal disease models = conditions: cited from earlier work
# [3] = up to 2-year carcinogenicity studies; cited from earlier work
smiles,measurement,setting,value
"CSc1ccc(C(=O)/C=C/c2cc(C)c(OC(C)(C)C(=O)O)c(C)c2)cc1 [Elafibranor, 2-(2,6-dimethyl-4-{3-[4-(methylsulfanyl)phenyl]-3-oxopropen-1-yl}phenoxy)-2-methylpropanoic acid]",saturation concentration of elafibranor in the solvent,"[1]; N,N-dimethylacetamide",11.9 mg/mL
same,saturation concentration of elafibranor in the solvent,[1]; ethanol,28.7 mg/mL
same,saturation concentration of elafibranor in the solvent,[1]; methanol,17.7 mg/mL
same,HDL-C levels,[2],increase
same,insulin sensitivity and glucose homeostasis,[2],improvement
same,"markers of liver dysfunction, including ALAT, ASAT, γGT, ALP",[2],improvement
same,plasma triglycerides and LDL-C,[2],decrease
same,"histological NASH parameters (steatosis, inflammation, fibrosis)",animal disease models,efficacy
same,safety in full toxicological package,[3],absence of safety concern
